Series [1] relates to Staphylococcus aureus. Kind of series: Antibacterial susceptibility testing: IC90 determination (broth microdilution, resazurin fluorescence). The series is classed as cell-based. The note with it: 90% inhibitory concentration for bacterial growth, Mueller Hinton broth, 35° C., 16-20 hours, strain not given. As for the experimental part:
Preparation of Bacterial Suspensions for Susceptibility Testing
The following bacteria were used: Staphylococcus aureus ATCC 29213, methicillin-resistant Staphylococcus aureus (MRSA) ATCC 700788 and Escherichia coli ATCC 35218. The bacteria used in this study were grown overnight in flasks containing 100 ml Mueller-Hinton broth (Difco cat. nr. 0757-17) in sterile de-ionized water, with shaking, at 37° C. Stocks were store at −70° C. until use.
Bacteria were incubated on a tryptic soy agar plate containing 5% sheep blood (Becton Dickinson cat. nr. 254053) for 18-24 hours at 35° C. in aerobic conditions (first passage). For the second passage, fresh Mueller-Hinton broth is inoculated with 5-10 colonies and grown overnight at 35° C. until turbidity (reaching log-phase) in aerobic conditions is reached. The bacterial suspension is then adjusted to 0.5 McFarland density and further diluted 1:100 in Mueller Hinton broth medium. This is used as inoculum.
Antibacterial Susceptibility Testing: IC90 Determination
MIC assays were performed by the broth microdilution method in a 96-well format (flat-bottom microtitre plates) with a final volume of 0.1 ml Mueller Hinton broth containing two-fold serial dilutions of compounds and inoculated with 5×10^5 CFU/ml of bacteria (standard inoculum size according to CLSI guidelines). Inhibitors are typically varied over the range of 63 to 0.49 μM. The final DMSO concentration in the assay was 1.25% (maximum tolerable DMSO concentration=6%). In the assays where the effect of human serum on the activity of the compounds against S. aureus was tested, human serum was added at a final concentration of 10%. The plates were incubated at 35° C. for 16-20 hours. At the end of incubation the bacterial growth was quantified fluorometrically. For this, resazurin was added to all wells and the plates were re-incubated. The incubation time is dependent on the type of bacteria. A change in color from blue to pink indicated the growth of bacteria. The fluorescence was read in computer-controlled fluorometer (Fluoroskan Ascent FL, Labsystems) at an excitation wavelength 540 nm and an emission wavelength of 590 nm. The % growth inhibition achieved by the compounds was calculated according to standard methods. The IC90 (expressed in μg/ml) was defined as the 90% inhibitory concentration for bacterial growth. A panel of reference compounds were simultaneously tested for QC approval.

A short description of series [2]: Cytotoxicity MTT assay. The series is classed as cell-based. The note with it: human, HelaM cells, concentration that causes 50% reduction in cell viability. As for the experimental part:
Cytotoxicity of the compounds was evaluated using the MTT assay. Human HelaM cells grown in 96-well plates were exposed to serial dilutions of the tested compounds (final volume of 0.2 ml) and incubated for 72 hours at 37° C. and 5% CO2 Inhibitors are typically varied over the range of 25 to 0.8 μM. The final DMSO concentration in the assay is 0.5%. MTT (3-(4,5-Dimethylthiazol-2-yl)-2,5-diphenyltetrazolium bromide, a tetrazole) was added and reduced to purple formazan only in living cells. Solubilization of the formazan crystals was achieved by adding 100 μl 2-propanol. Cell viability was determined by measuring the absorbance of the reduced formazan, giving a purple color, at 540 nm and 690 nm. The absorbance measured at 690 nm was automatically subtracted from the absorbance at 540 nm, to eliminate the effects of non-specific absorption. The percent cytotoxicity achieved by the compounds was calculated according to standard methods. Cytotoxicity is reported as CC50, the concentration that causes a 50% reduction in cell viability.
Background: Formazan colour is commonly taken as a measure of viable cells.

We go through 32 compounds from patent US9725432B2, “Pyrimidine derivatives for the treatment of bacterial diseases” (JANSSEN R&D IRELAND, priority 2012, dated 2017).

In brackets after ≈: the same amount, converted by molar mass.

Turning to `CC(C)(C)CN1CCC(c2nc(-c3ccncc3)ncc2-c2cccc(Cl)c2)CC1` [Compound 39], the melting point (commonly the temperature, or range, at which the solid turns liquid) is 119 to 121 °C. In addition, the IC90 (commonly the concentration needed for an effect of 90%) in series [1] amounted to 0.76 µg/mL (≈ 1.81 µM). In series [2], the midpoint of cytotoxicity, the CC50 at 72 h, lay at 7.3 µg/mL (≈ 17.3 µM).
For `COc1cccc(-c2cnc(-c3ccncc3)nc2C2CCN(Cc3ccccc3)CC2)c1` [Compound 16], in that order: 174 °C, 6.92 µg/mL (≈ 15.9 µM) and greater than 11 µg/mL.
The matching figures for `Cc1ccccc1-c1cnc(-c2ccncc2)nc1C1CCN(CC(C)(C)C)CC1` [Compound 50]: 208 °C, 9.61 µg/mL (≈ 24 µM) and greater than 4 µg/mL.
The matching figures for `COc1cccc(-c2cnc(-c3ccncc3)nc2C2CCN(Cc3ccc(F)cc3)CC2)c1` [Compound 29]: 152 °C, 3.45 µg/mL (≈ 7.59 µM) and 8.5 µg/mL (≈ 18.7 µM).
Take `COc1cccc(-c2cnc(-c3ccncc3)nc2C2CCN(Cc3ccc(Cl)cc3O)CC2)c1` [Compound 9]: the melting point fell in the range of 119 to 123 °C. Moreover, the 90% effect level in series [1] (IC90) was put at 0.97 µg/mL (≈ 1.99 µM). Also, in series [2], the CC50 – broadly, the concentration at which the toxic effect on the cells reaches its halfway point – at 72 h was found to be 5.9 µg/mL (≈ 12.1 µM).
For `COc1cccc(-c2cnc(-c3ccncc3)nc2C2CCN(CC(C)C)CC2)c1` [Compound 11], in that order: 105 to 106 °C, 5.49 µg/mL (≈ 13.6 µM) and greater than 10.1 µg/mL.
The matching figures for `CC(C)(C)CN1CCC(c2nc(-c3cccnc3)ncc2-c2cccc(C#N)c2)CC1` [Compound 69]: 148 to 150 °C, 3.02 µg/mL (≈ 7.34 µM) and greater than 10.3 µg/mL.
Regarding `COc1cccc(-c2cnc(-c3ccncc3)nc2C2CCN(Cc3ccc(C#N)cc3)CC2)c1` [Compound 34], the melting point was 168 °C. The IC90 in series [1] was 6.99 µg/mL (≈ 15.1 µM). This compound also had a CC50 at 72 h in series [2] of 8.7 µg/mL (≈ 18.8 µM).
For `COc1cccc(-c2cnc(-c3cccnc3)nc2C2CCN(C(=O)C(C)Oc3ccccc3)CC2)c1` (stereo not drawn) [Compound 27], in that order: 138 to 140 °C, 9.1 µg/mL (≈ 18.4 µM) and 7.1 µg/mL (≈ 14.4 µM).
The matching figures for `COc1cccc(-c2cnc(-c3ccncc3)nc2C2CCN(Cc3ccc(F)cc3F)CC2)c1` [Compound 32]: 138 °C, 3.27 µg/mL (≈ 6.92 µM) and 5.5 µg/mL (≈ 11.6 µM).
The matching figures for `Cc1cccc(-c2cnc(-c3ccncc3)nc2C2CCN(Cc3cc(Cl)ccc3O)CC2)c1` [Compound 13]: 180 to 181 °C, 1.71 µg/mL (≈ 3.63 µM) and 5.2 µg/mL (≈ 11 µM).
As for `COc1cccc(-c2cnc(-c3ccncc3)nc2C2CCN(CC(C)(C)C#N)CC2)c1` [Compound 57], the melting point stood at 117 °C. In series [1], this compound yielded an IC90 of 0.39 µg/mL (≈ 0.912 µM). The CC50 at 72 h in series [2] turned out to be 7.3 µg/mL (≈ 17.1 µM).
On to `CC(C)(C)CN1CCC(c2nc(-c3cncnc3)ncc2-c2cccc(C#N)c2)CC1` [Compound 68], for which the melting point lay in the range of 163 to 170 °C. This compound returned an IC90 in series [1] of 6.1 µg/mL (≈ 14.8 µM). For the same compound, the CC50 at 72 h in series [2] was greater than 10.4 µg/mL.
Take `COc1cccc(-c2cnc(-c3ccncc3)nc2C2CCN(Cc3cccs3)CC2)c1` [Compound 19]: the melting point came to 130 °C. This compound came in with an IC90 in series [1] of 5.57 µg/mL (≈ 12.6 µM). Besides, the CC50 at 72 h in series [2] is greater than 11.1 µg/mL.
The matching figures for `CC(C)(C)CN1CCC(c2nc(C(F)(F)F)ncc2-c2cccc(C#N)c2)CC1` [Compound 64]: 114 to 116 °C, 1.46 µg/mL (≈ 3.63 µM) and greater than 10.1 µg/mL.
As to `COc1cccc(-c2cnc(-c3ccncc3)nc2C2CCN(Cc3cccc(C(F)(F)F)c3)CC2)c1` [Compound 28], the melting point turned out to be 156 °C. This compound registered an IC90 in series [1] of 5.28 µg/mL (≈ 10.5 µM). The same compound displayed a CC50 at 72 h in series [2] of 4.7 µg/mL (≈ 9.32 µM).
For `COc1cccc(-c2cnc(-c3ccncc3)nc2NC2CCN(CC(C)(C)C)CC2)c1` [Compound 30], in that order: 137 to 138 °C, 5.19 µg/mL (≈ 12 µM) and 8.8 µg/mL (≈ 20.4 µM).
The matching figures for `COc1cccc(-c2cnc(-c3ccncc3)nc2C2CCN(CC(C)(C)C)CC2)c1` [Compound 6]: 118 °C, 1.05 µg/mL (≈ 2.52 µM) and greater than 10.5 µg/mL.
With `Cc1cccc(-c2cnc(-c3ccncc3)nc2C2CCN(Cc3cccc(F)c3)CC2)c1` [Compound 14], the melting point is 195 to 196 °C. Besides, the IC90 in series [1] amounted to 9.16 µg/mL (≈ 20.9 µM). Also, in series [2], the CC50 at 72 h is greater than 11 µg/mL.
The matching figures for `COc1cccc(-c2cnc(-c3ccncc3)nc2C2CCN(C(=O)C(C)(C)C)CC2)c1` [Compound 25]: 165 °C, 3.27 µg/mL (≈ 7.59 µM) and greater than 10.8 µg/mL.
As to `COc1cccc(-c2cnc(-c3ccncc3)nc2C2CCN(Cc3cc(Cl)ccc3O)CC2)c1` [Compound 5], the melting point fell in the range of 227 to 228 °C. In series [1], this compound registered an IC90 of 2.1 µg/mL (≈ 4.31 µM). Further, half-maximal cytotoxicity in series [2] (CC50 at 72 h) was put at 6.3 µg/mL (≈ 12.9 µM).
The matching figures for `N#Cc1cccc(-c2cnc(-c3ccncc3)nc2C2CCN(CC(F)(F)F)CC2)c1` [Compound 58]: 168 to 172 °C, 0.69 µg/mL (≈ 1.63 µM) and greater than 10.6 µg/mL.
`COc1cccc(-c2cnc(-c3cccnc3)nc2C2CCN(CC(C)(C)C)CC2)c1` [Compound 24] yielded a melting point of 222 to 224 °C. The compound also came in with an IC90 in series [1] of 1.68 µg/mL (≈ 4.03 µM). The compound further returned a CC50 at 72 h in series [2] greater than 11.4 µg/mL.
`COc1ccc(-c2cnc(-c3ccncc3)nc2C2CCN(CC(C)(C)C)CC2)cc1` [Compound 36] gave a melting point of 154 to 156 °C. The same compound gave an IC90 in series [1] of 2.98 µg/mL (≈ 7.15 µM). Also, the CC50 at 72 h in series [2] was greater than 10.5 µg/mL.
`COc1cccc(-c2cnc(-c3ccncc3)nc2C2CCN(Cc3ccco3)CC2)c1` [Compound 18] came in with a melting point of 120 °C. This compound also yielded an IC90 in series [1] of 13 µg/mL (≈ 30.5 µM). Also, the CC50 at 72 h in series [2] is greater than 10.7 µg/mL.
With `N#Cc1cccc(-c2cnc(-c3cccnc3)nc2C2CCCN(CC(F)(F)F)C2)c1` (stereo not drawn) [Compound 60], the melting point fell in the range of 52 to 92 °C. In series [1], this compound showed a concentration for an effect of 90% (IC90) greater than 26.7 µg/mL. The same compound showed a CC50 at 72 h in series [2] greater than 10.6 µg/mL.
The matching figures for `COc1cccc(-c2cnc(-c3ccncc3)nc2C2CCN(Cc3ccccc3O)CC2)c1` [Compound 10]: 142 to 146 °C, 1.68 µg/mL (≈ 3.71 µM) and 9.9 µg/mL (≈ 21.9 µM).
In turn, `COc1cccc(-c2cnc(-c3ccncc3)nc2C2CCN(Cc3cc(F)cc(F)c3)CC2)c1` [Compound 48] had a melting point of 181 °C. The same compound gave an IC90 in series [1] of 3.16 µg/mL (≈ 6.69 µM). In series [2], this compound displayed a CC50 at 72 h of 2.2 µg/mL (≈ 4.66 µM).
The matching figures for `COc1cccc(-c2cnc(-c3ccncc3)nc2N2CCC(c3ccccc3)CC2)c1` [Compound 26]: 157 to 159 °C, 7.51 µg/mL (≈ 17.8 µM) and 5.7 µg/mL (≈ 13.5 µM).
Take `COc1cccc(-c2cnc(-c3ccncc3)nc2C2CCN(C3CC3)CC2)c1` [Compound 12]: the melting point was 153 to 156 °C. This compound showed an IC90 in series [1] of 5.78 µg/mL (≈ 15 µM). This compound displayed a CC50 at 72 h in series [2] greater than 9.7 µg/mL.
For `COc1cccc(-c2cnc(-c3ccncc3)nc2C2CCN(Cc3ccc(F)c(F)c3)CC2)c1` [Compound 43], in that order: 158 °C, 2.24 µg/mL (≈ 4.74 µM) and 6.2 µg/mL (≈ 13.1 µM).
For `COc1cccc(-c2cnc(-c3ccncc3)nc2C2CCN(Cc3ccc(C)cc3)CC2)c1` [Compound 35], in that order: 141 °C, 13.3 µg/mL (≈ 29.5 µM) and 7.7 µg/mL (≈ 17.1 µM).
